Structures are written as SMILES.

`O=C(Cc1ccccc1)N1CCc2[nH]c(=O)n3nc(-c4ccccc4F)nc3c2C1`: the melting point (commonly the temperature, or range, at which the solid turns liquid) lay within 310 to 313 °C.

Consider `C[C@@H]1CN(CCCn2c3ccccc3c3ccccc32)C[C@H](C)N1`, for which the melting point lay within 107 to 109 °C.

Molecule `CN1N=C(c2ccc(F)cc2)c2cc3nsnc3cc2CS1(=O)=O` returned a melting point of 272 to 275 °C. The molecule `COc1cc2c(cc1OC)C(C=Cc1ccc(N(C)C)cc1)=NN=C(C)C2` gave a melting point of 170 to 172 °C. In the case of `CCn1nnnc1SCc1c(S(C)(=O)=O)ccc(C(=O)OC)c1Cl` it was 109 to 110 °C. `CCN(C(=O)c1ccccc1-c1ccccc1)C(C)(C)c1ccccc1` came in with a melting point of 121 to 122 °C. As for `CCCCn1c(=O)c2c(N3CCN(C)CC3)cc(Cl)cc2n(Cc2ccccc2)c1=O`, the melting point was in the range of 121 to 123 °C. Molecule `COC(CCC(C)C1CCC2C3C(OC(C)=O)CC4CC(OC(C)=O)CCC4(C)C3CC(=O)C12C)=NNS(=O)(=O)c1ccc(C)cc1` (centres undefined) displayed a melting point of 146 to 147 °C. The figure for `Cc1c(Br)ccc(S(C)(=O)=O)c1C=NO` is 192 to 194 °C; for `CCc1nnc(CCCOc2c(C)cc(-c3noc(C(F)F)n3)cc2C)s1` it is 83 to 84 °C.

With `O=C(O)c1c(O)cccc1-c1ccccc1`, the melting point lay within 143 to 146 °C. As for `CC(C)(C)c1ccc(C(=O)c2ccccc2O)c(C(C)(C)C)c1O`, the melting point fell in the range of 126 to 128 °C. The figure for `CN(C)C=C1CN=Cc2ccccc2C1=O` is 131 to 133 °C; for `COC(=N)CCCCc1csc(NC(=N)N)n1` it is 143 to 145 °C. For `COC(=O)COc1ccc(CC2SC(=O)N(C(c3ccccc3)(c3ccccc3)c3ccccc3)C2=O)cc1` (centres undefined), the melting point fell in the range of 158 to 162 °C. Molecule `C=Cc1ccc(-n2cc(C)c(=O)[nH]c2=O)cc1` showed a melting point of 185 °C. For `CN1C(=O)Cc2ccccc2C1=O`, the melting point lay within 113 to 115 °C. In turn, `CCCOc1ccc(/C=C/c2nc3c(c(=O)n(CC)c(=O)n3CC)n2C)cc1` showed a melting point of 156 °C. The molecule `Cn1cc2c(n1)-c1sccc1N(C(=O)c1ccc(NC(=O)c3ccc(Cl)cc3Cl)cc1)CC2` returned a melting point of 265 to 267 °C.

The molecule `CCCCNC(=O)NC(N)=O` displayed a melting point of 129 to 131 °C. In the case of `O=C(O)c1ccc2c(c1)CCCC2NC(=O)c1cccc(Oc2ccccc2)c1` (centres undefined), the melting point was in the range of 155 to 160 °C. Consider `CCCCCCC(C)(C)c1cc(OCc2ccccc2)c(C2=C(C(C)(C)C#N)CCC(C)C2)c(OCc2ccccc2)c1` (centres undefined), for which the melting point was in the range of 65 to 66 °C. In the case of `CC(=O)c1c[nH]c(-c2ccc(O)cc2)n1` it was 254 to 259 °C; in that of `COc1cc2c(cc1NC(=S)Nc1ccc([N+](=O)[O-])cc1)C(C)(C)OCC2(C)C`, 198 to 199 °C. As for `CS(=O)(=O)c1ccc(-c2oc(CCC(N)=O)nc2-c2ccc(F)cc2)cc1`, the melting point lay in the range of 193 to 195 °C. For the molecule `CCOC(=O)C1C(=O)N(CC)c2cc3c(cc21)OCC3` (centres undefined), the melting point lay in the range of 82 to 84 °C. On to `CCOC(=O)C(=NOC)c1nc(Cl)cc(NC=O)n1`, for which the melting point fell in the range of 116 to 119 °C. Turning to `[N-]=[N+]=C1C(=O)CCc2ccccc21`, the melting point lay in the range of 42.5 to 44.2 °C. With `Cc1cc(C)cc(NC(=O)Cc2ccc(OC3(C(=O)N[C@@H](C)C(=O)O)CCCC3)cc2)c1`, the melting point fell in the range of 90 to 91 °C. As for `CC1SC(=O)NN=C1c1ccc2c(c1)C(C)(C)C(=O)N2C(=O)c1cccnc1` (centres undefined), the melting point amounted to 245 °C.

`COC(=O)c1cc(O)nn1-c1ccccc1` registered a melting point of 227 to 228 °C.

In turn, `CC1=C(C(=O)OC(C)C)[C@@H](c2cccc(Cl)c2)NC(=O)N1C(N)=O` had a melting point of 131 to 133 °C. The molecule `Cc1cnc2c(NC(=O)c3c(Cl)cccc3Cl)cccc2c1Oc1ccccc1` gave a melting point of 168 to 170 °C. `ON(Cc1ccccc1)Cc1ccc(CN(O)Cc2ccccc2)cc1` gave a melting point of 160 to 163 °C. `Cc1c(C(C)O)ssc1=S` (centres undefined) yielded a melting point of 79 to 80 °C. Take `COc1cc(OC)c(C2=CCCCC2)c(OC)c1`: the melting point is 127 °C. The molecule `CCOC(=O)c1ccc(C=C(C)c2cc3c(s2)C(C)(C)CCC3(C)C)cc1` yielded a melting point of 118 to 120 °C. In the case of `CN(C)C(=O)n1nc(-c2ccccc2)c(-c2ccccc2)c(C#N)c1=O` it was 231 °C; in that of `COC(=O)c1ccc([C@H]2CCN(C(=O)OC(C)(C)C)C[C@@H]2O)cc1` (racemic), 146 °C. In turn, `CCOC(=O)C(C)=Cc1ccc2cc[nH]c2c1` gave a melting point of 88 to 91 °C. As for `CCOC(=O)COc1ccc2[nH]ccc2c1`, the melting point was in the range of 74 to 77 °C. `O=C(Nc1ccc(Cl)cc1)O[C@H]1COC(c2ccccc2)=N[C@@H]1c1ccccc1` (racemic) showed a melting point of 200 °C. In turn, `CCCc1nc2c(N)nc3cc(OCCOCc4ccccc4)ccc3c2s1` gave a melting point of 142 to 145 °C.

Turning to `CCCCN1C(=O)c2ccc(O)cc2C1=O`, the melting point was 126 to 127 °C. `Cc1cc(C)cc(C(=O)c2c(C(C)C)c(=O)[nH]c(=O)n2CC2CCCC2)c1` showed a melting point of 167 to 168 °C. In turn, `Ic1ccnc2c1CCCN2` returned a melting point of 117 to 118 °C. Turning to `CC(C)(C)c1ccc(CCOc2ncnc3cnccc23)cc1`, the melting point lay within 59 to 60 °C. In the case of `O=C(O)c1cn(C2COC2)c2cc(F)c(F)cc2c1=O` it was 255 to 256 °C; in that of `NC(=O)[C@H]1CCCN1C(c1ccccc1)(c1ccccc1)c1ccccc1`, 162 °C; in that of `CC(C)CCSc1cc(C(=O)O)cc(N=Nc2cc(C(=O)O)cc(SCCC(C)C)c2C(=O)c2ccccc2)c1C(=O)c1ccccc1`, 143 to 144 °C.

As to `C=CCN(C(=O)NC(C)(C)C)c1nc(NC(=O)NC(C)(C)C)c2cc([N+](=O)[O-])ccc2n1`, the melting point was in the range of 105 to 106 °C. In turn, `CCCOc1ccccc1-c1cccc(=O)[nH]1` had a melting point of 134 to 136 °C. Take `CS(=O)(=O)Nn1c(=O)[nH]c2cc(C(F)(F)F)c(-c3cccc(C#N)c3)cc2c1=O`: the melting point lay within 291 to 292 °C. In the case of `COc1cc(C)c2c(=O)c3c(C)c(Cl)ccc3oc2c1OC` it was 101 °C; in that of `CCOC(=O)CCc1cc(O)nn1Cc1ccccc1`, 128 to 129 °C; in that of `O=C(O)/C=C/c1ccc(-c2nc3c(=O)n(CCC4=CCCCC4)c(=O)n(CCC4=CCCCC4)c3[nH]2)cc1`, over 250 °C. In the case of `O=[N+]([O-])c1ccc2c(c1)O[C@@H](CNCc1ccccc1)CO2` it was 98 °C; in that of `CS(=O)(=O)C(C(=O)OCc1ccccc1)(C(=O)OCc1ccccc1)N1C(=O)C(NC(=O)Cc2ccccc2)C1CN=[N+]=[N-]` (centres undefined), 114 to 115 °C. As for `Cc1nc(-c2cc3cccc(N(C)S(=O)(=O)c4cccs4)c3[nH]2)cs1`, the melting point lay within 161 to 162 °C. `O=C(O)COCCCCC1CCCN1c1cnc(-c2ccccc2)c(-c2ccccc2)n1` (centres undefined) gave a melting point of 138 to 140 °C. In turn, `CC(CC#N)CN1C(=O)c2ccccc2S1(=O)=O` (centres undefined) gave a melting point of 83 to 84 °C. In turn, `COc1ccc(S(=O)(=O)C(CCCCc2ccccc2)C(=O)NO)cc1OC` (centres undefined) gave a melting point of 180 to 188 °C. Regarding `CN1CCN(c2c(F)cc3c(=O)c(C(=O)O)cn(-c4ccc(O)cc4)c3c2F)CC1`, the melting point is over 300 °C. `COC(=O)C1=C(COCCn2c(C)nc(C)c2C)Nc2c(c(=O)n(C)c(=O)n2C)C1c1ccccc1Cl` (centres undefined) gave a melting point of 226 to 228 °C. In the case of `CC(O)C(C)C1=C2C(C)(C)C3CCC2(C3)C(C)(C)CC1` (centres undefined), the melting point was 119 to 121 °C.

For the molecule `COc1cccc2c1C(c1ccccc1Cl)NC(=O)C2` (centres undefined), the melting point fell in the range of 230 to 233 °C. Molecule `COc1cc(-c2cccs2)cc(OC)c1C=O` yielded a melting point of 168 to 170 °C. For the molecule `COCCc1nc2c(N)nc3ccccc3c2n1CCOCCNS(C)(=O)=O`, the melting point lay within 114 to 117 °C.

On to `CCC1(CC)C(=O)N(CC(O)Cc2cc(C)c(O)c(C(C)(C)C)c2)C(=O)N(CC(O)Cc2cc(C)c(O)c(C(C)(C)C)c2)C1=O` (centres undefined), for which the melting point is 147 to 148 °C. As to `COc1cc(C(C)C)ccc1C1(O)C(=O)c2c(NC(C)=O)ccc([N+](=O)[O-])c2C1=O` (centres undefined), the melting point was 110 to 115 °C.

Consider `N#Cc1cnc2cc(-c3ccc(C=O)cc3)sc2c1Nc1ccc(Oc2ccccc2)cc1`, for which the melting point is 230 to 232 °C. `NC(=O)c1cn(C2CCCC2)nc1N` registered a melting point of 179 to 181 °C.

The molecule `COc1nccc2c1C(c1ccccc1C(F)(F)F)C(C(=O)OCCN(C)C)=C(C)N2` (centres undefined) registered a melting point of 137 to 138 °C. In the case of `COc1ccc(C(CCCCC(=O)O)C2=CC(=O)c3ccccc3C2=O)cc1` (centres undefined), the melting point was in the range of 141 to 143 °C. `O=c1c2ccccc2oc2cc(-c3nnn[nH]3)ccc12` gave a melting point of 296 °C.

Take `O=c1cc(-c2ccc3c(c2)CCCC3)[nH]c2ccccc12`: the melting point was in the range of 241 to 250 °C. Molecule `CC(C)(C)C(=O)Nc1cccc(-c2ccnc3c(C(=O)c4ccccc4)cnn23)c1` showed a melting point of 160 to 161 °C. With `CCCCOC1CCC(=O)N1` (centres undefined), the melting point was in the range of 36 to 38 °C. In turn, `COc1cc2c(Nc3ccc(Sc4nccn4C)c(Cl)c3)c(C#N)cnc2cc1N(C)CCCN(C)C` gave a melting point of 196 to 201 °C. In turn, `CCOC(=O)COc1cccc(Br)c1CC(=O)O` gave a melting point of 181 to 183 °C. The figure for `N#CCCn1ccc(NC(N)=NCC(F)(F)F)n1` is 141 to 142 °C. With `O=C1Nc2ccccc2N(C(=O)CCCCl)c2ccccc21`, the melting point was 151 to 152 °C. Consider `CCn1c2ccccc2n2c(=O)c(C(=O)NC)cnc12`, for which the melting point was 178 to 180 °C. Turning to `C#CC1(OC(C)=O)CCC2C3CCc4cc(OC)ccc4C3CCC21CC` (centres undefined), the melting point was 178 to 182 °C. As for `COC(=O)[C@H]1[C@@H]2CC[C@@](NC(=O)OC(C)(C)C)(C(=O)O)[C@@H]21`, the melting point fell in the range of 164 to 165 °C.

In the case of `COc1ccc(CCN(C)CCCC(C)(C(=O)OC(C)C)c2ccc(OC)c(OC)c2)cc1OC` (centres undefined), the melting point was 85 to 87 °C.

The molecule `O=Cc1ccc(-c2ccccc2)c(F)c1` yielded a melting point of 82 to 83 °C. The molecule `CCCc1nn(-c2ccc(C(F)(F)F)cn2)cc1CCCOc1cccc(CC(=O)O)c1F` returned a melting point of 109 to 110 °C. For `Cc1ccc(-n2c(=O)c(C)nc3cccnc32)cc1`, the melting point fell in the range of 215 to 216 °C.

Values taken from a melting point compilation (Tetko et al.; mined from patent text by program, amines drawn as free bases though some values may be those of a salt).
